Reference: US20070141673A1, “Tool for quantitative real-time analysis of viral gene expression dynamics in single living cells” (priority 2005, published 2007)

Legend:
[1] = tested on: HIV-1 VSV-G pseudotype (NL4.3-luc) in MDM cells; assay type: cell-based
[2] = tested on: HIV-1 VSV-G pseudotype (NL4.3-luc) in CD4 T cells; assay type: cell-based
[3] = tested on: CD4 T cells; test: Flow-cytometry analysis of activation markers CD25 and CD69; assay type: cell-based, human; conditions: PHA treatment during three days before infection
[4] = tested on: HIV-1 VSV-G pseudotype (NL4.3-luc) in MDM cells; assay type: cell-based; remark: listed apart in the source
[5] = tested on: HIV-1 VSV-G pseudotype (NL4.3-luc) in MDM cells; assay type: cell-based; remark: listed apart in the source

CCCCCCCCCCCCCC(=O)O[C@@H]1[C@@H](C)[C@@]2(O)[C@@H](C=C(CO)C[C@]3(O)C(=O)C(C)=C[C@@H]23)[C@@H]2C(C)(C)[C@]12OC(C)=O [PMA, phorbol 12-myristate 13-acetate]
time after stimulation at which bioluminescence signal began to increase [1]: 4 h

phytohemagglutinin [PHA]
duration of increase of photon emission until stable plateau level [2]: 4 h
positive lymphocytes (bioluminescence) in cells treated before infection [2]: abundant numbers of positive lymphocytes
time after mitogen stimulation at which photon emission began to be detected in formerly negative cells [2]: 8 h
global activation of CD4 T cells [3]: > 98%

O=C(O)C(=O)CC(=O)c1cccn1Cc1ccc(F)cc1 [L-731,988]
luciferase activity in cell lysates [4]: reduced in a dose-dependent manner
number of cells emitting bioluminescence [5]: reduction in the number of cells emitting bioluminescence
number of photons emitted per individual cell [5]: significant reduction in the number of photons emitted per individual cell
overall averaged bioluminescence intensity [5]: decreased
